Measured values as given in patent US20230293614A1, “COMPOSITIONS AND METHODS OF TREATING UPS-ASSOCIATED DISEASES” (Board of Supervisors of Louisiana State University and …, priority 2020, published 2023).

Key:
[1] = tested on: DUB; assay: Experiment 3: DUB reporter Z-LRGG-AMC with control, 5011 and DMC-2 treated lysates; type: biochemical
Procedure: Peptide used was the commercial DUB reporter [Z-LRGG-AMC (SEQ ID NO: 1)] at multiple concentrations [50-150 uM]. 1100 uL protein at 6 mg/mL for each set was given. Final protein concentration in micro-wells was 4 mg/mL. Peptide was incubated with control, 5011 treated, 1 ug/mL DMC-2, 10 ug/mL DMC-2, and 30 ug/mL DMC-2 in DUB assay buffer. Fluorometric readings were taken at different time points in plate reader. Measured at [Em 460/Ex 355]. Fluorescent signals were converted to μM/min using a calibration curve for the AMC fluorophore. Rates were plotted vs. substrate concentration (Z-LRGG-AMC peptide (SEQ ID NO: 1)) (FIG. 10). […] The curves are not perfect logarithmic curves but we can observe the trend. The results with different concentrations of DMC-2 were further plotted. When compared with control: the 5011 treatment enhances DUB activity, DMC-2 being the active part of 5011, also enhances the DUB activity. From FIG. 11, the lowest concentration of DMC2-1 μg/mL has most effect on DUB activity when compared to 30 μg/mL. Without wishing to be bound by theory, some data fluctuation with DMC-2 can occur in the 1 μg/mL range.

[2] = tested on: deubiquitinating enzymes (DUBs); assay: DUB activity (Z-LRGG-AMC cleavage) in lysates of treated OPM2 cells; type: cell-based; conditions: for Vmax / effect on DUB activity vs DMSO control / Km / n (Hill coefficient): 16 h
Procedure: OPM2 cells were maintained in RPMI 1640 media supplemented with 12% FBS, 21.8 mM glucose, 8.6 mM HEPES (pH 7.4) and 1.0 mM sodium pyruvate. MM.1S cell line were maintained in RPMI 1640 media supplemented with 10% FBS. The cells were all cultured in T175 flasks (VWR, Radnor, Pa.). All media components were from Corning, Atlanta, Ga. unless otherwise noted. To test the effect of the ethanolic extract and bioactive compounds on DUB activity, cells were exposed to a 16-h pretreatment with 10 μg/mL of PMI-5011 and 1, 10, 30 μg/mL concentrations of DMC-1, DMC-2, KOE, and davidigenin before lysing the cells for experimentation. All compounds were reconstituted in DMSO to obtain stock concentrations, which was further diluted in culture media to obtain the desired experimental concentrations. For vehicle control, a subpopulation of cells was treated with pure DMSO diluted in a similar manner for the same duration. Upon treatment, cell lysates (both OPM2 and MM.1S) were generated by harvesting 1×10^6 cells/mL, followed by washing 2× and pelleting in phosphate buffered saline (PBS; 137 mM NaCl, 10 mM Na2HPO4, […], and 1.75 mM KH2PO4 at pH 7.4). The cell pellet was re-suspended in an approximately equivalent volume of M-PER to the volume of the cell pellet (1000-2000 μL) then vortexed for 10 min at room temperature. Following this, the mixture was centrifuged at 14,000×g for 15 min at 4° C. and the supernatant transferred to a centrifuge tube and stored on ice until use. Total protein concentration was determined using a NanoDrop 2000c (Thermo Scientific, Madison, Wis.).
The commercial DUB reporter, Z-LRGG-AMC (substrate) (SEQ ID NO: 1) was reconstituted in DMSO to obtain a final stock concentration of 1.44 mM. This stock reporter was diluted as needed in assay buffer (50 mM HEPES, pH 7.4, 150 mM NaCl, 2 mM DTT, and 0.02% Tween-20) supplemented with 4 mg/mL cell lysates (source of DUBs) to reach the desired reporter concentration with a final volume of 100 μL in a 96-well plate. OPM2 and MM.1S cell lysates from different treatments (10 μg/mL of PMI-5011; 1, 10, and 30 μg/mL of DMC-1, DMC-2, KOE, davidigenin and control vehicle DMSO) and C2C12 cell lysates were used to interrogate the effect of the ethanolic extract and selected bioactive compounds on DUB activity. Reporter only and lysates only (noise/background) samples were included in the 96-well plate to confirm that the rates observed were due to DUB-mediated hydrolysis initiated by the cell lysates. The 96-well plate was maintained at a temperature of 30° C. in the dark for the duration of the experiment. The fluorescence signals emitted as a result of DUB-mediated cleavage of AMC (λex=355 nm and λem=460 nm) were quantified using a Wallac 1420 VICTOR2 multilabel HTS counter fluorometry (Perkin Elmer (Waltham, Mass.). Readings were collected every 30 min for 6 h. The normalized signals were obtained by comparing the treatment with noise and background fluorescence values which were then statistically analyzed for their significance. Each data point represents triplicate data points from duplicate experiments. A calibration curve was generated for known concentrations of AMC to correlate the fluorescence signal (AU) to concentration (μM). The approximate concentration of free fluorophore was used to calculate reaction rates (μM/min) for each substrate concentration using linear regression analysis.
All data visualization, interpretation and curve-fittings were performed using Origin Pro (OriginLab, Northampton, MA) while statistical analyses of experimental data were carried out using SAS 9.4 (SAS Solutions). The analyses of enzyme-substrate reactions in all cell lysates started with scatter plotting the fluorometry signals (p,M) measured for each substrate concentration against time (min). Fluorescence signals measured for each substrate concentration remained stable during the first 30 min, indicating there was a 30-minute lag period before reaction initiation. […]

## COc1ccc(CCC(=O)c2ccc(O)cc2O)cc1 [DMC-2, 1-(2,4-dihydroxyphenyl)-3-(4-methoxyphenyl)propan-1-one]
[1]; compared to 30 μg/mL
  concentration with most effect on DUB activity: 1 µg/mL
[1]; treated lysates 4 mg/mL, DMC-2 at 1, 10, 30 ug/mL
  effect on DUB activity vs control: enhances
[2]; OPM2, 1 μg/mL
  Vmax: 21.38 ± 2.68 µM/min
  effect on DUB activity vs DMSO control: significantly enhanced
[2]; OPM2, 10 μg/mL
  Vmax: 22.71 ± 1.64 µM/min
  effect on DUB activity vs DMSO control: significantly enhanced
[2]; OPM2, 30 μg/mL
  Vmax: 184.79 ± 22.09 µM/min
  effect on DUB activity vs DMSO control: significantly enhanced
[2]; OPM2, 1, 10, 30 μg/mL, regression fit
  effect of increasing concentration on DUB activity (normalized Vmax): exponential increase
[2]; Table 2, OPM-2, 1 μg/mL
  Km: 44.8 µM
  n (Hill coefficient): 1.47
[2]; Table 2, OPM-2, 1 μg/mL, in µM/min
  Vmax: 21.38
[2]; Table 2, OPM-2, 10 μg/mL
  Km: 35.5 µM
  n (Hill coefficient): 1.59
[2]; Table 2, OPM-2, 10 μg/mL, in µM/min
  Vmax: 22.71
[2]; Table 2, OPM-2, 30 μg/mL
  Km: 48.2 µM
  n (Hill coefficient): 1.49
[2]; Table 2, OPM-2, 30 μg/mL, in µM/min
  Vmax: 184.79
